Activity calls are given as the source filed them. The rule behind the calls is not given here.

The first experiment can be described thus: Antioxidant activity against Fe2+-induced lipid peroxidation at 20 uM by fluorescence spectroscopy. Type of experiment: functional.
Take `CC(C)(C)c1cc(O)ccc1O`: the Activity was above 90%.
The same measure, in the same setting: to `COC(=O)[C@]1(O)C[C@@H](O)[C@@H](O)[C@H](OC(=O)/C=C/c2ccc(O)c(O)c2)C1` belongs 50%.
Still for that read-out and setting: the value for `Cc1cc(C(C)(C)C)c(O)c(C(C)(C)C)c1` was above 90%; that for `O=C(/C=C/c1ccc(O)c(O)c1)O[C@@H]1CC[C@@H](O)[C@H]1O` was 80%.
Take `O=C(/C=C/c1ccc(O)c(O)c1)OC1[C@H](O)CC[C@@H]1O` (stereo partly specified): the Activity is 80%.

The next experiment is described as follows: Antioxidant activity against Fe2+-induced lipid peroxidation at 100 uM by fluorescence spectroscopy. Type of experiment: functional.
Take `O=C(O)C(O)Cc1ccccc1O` (racemic): the result was inactive.
